Values of other authors as cited in PubChem BioAssay AID1259409 (Chemical Carcinogenesis Research Information System (CCRIS), 2018).

System: rodent chemically induced tumor inhibition, incidence and multiplicity
Assay: CCRIS tumor inhibitor studies
Settings: for tumour outcome (control, treated, inhibition, significance): Route [Inhibitor]: ORAL; for outcome: Carcinogen: N,N-Diethylnitrosamine, Route [Inhibitor]: Intravenous, Species: Rat, Strain/Sex: Swiss-Albino/Male, Target Tissue: Type of Lesion: Liver: preneoplastic lesions, Promoter: None

O=c1c(O)c(-c2ccc(O)c(O)c2)oc2cc(O)cc(O)c12
tumour outcome (control, treated, inhibition, significance) (Carcinogen: DIETHYLNITROSAMINE, 55-18-5, N-METHYLNITROSOUREA, 684-93-5, 1,2-DIMETHYLHYDRAZINE, 540-73-8, N-BUTYL-N-(4-HYDROXYB, Carcinogen: DIETHYLNITROSAMINE, 55-18-5, N-METHYLNITROSOUREA, 684-93-5, 1,2-DIMETHYLHYDRAZINE, 540-73-8, N-BUTYL-N-(4-HYDROXYB, Dose [Inhibitor]: 0, 1% IN DIET FOR 32 WK BEGINNING POST CARCINOGEN TREATMENT (STUDY DURATION: 36 WK), Species: RAT, Strain/Sex: F344/MALE, Target Tissue: Type of Lesion: SMALL INTESTINE: ADENOMA, Dose [Carcinogen]: 100 MG/KG DEN ONCE, 20 MG/KG MNU 4 TIMES, 40 MG/KG DMH 4 TIMES, 0.05% BBN IN DRINKING WATER FOR 2 WK, 0.1% DHPN IN D, Dose [Carcinogen]: 100 MG/KG DEN ONCE, 20 MG/KG MNU 4 TIMES, 40 MG/KG DMH 4 TIMES, 0.05% BBN IN DRINKING WATER FOR 2 WK, 0.1% DHPN IN D, Promoter: NONE USED): 6/14 (43%), 0/12 (0%), 100%, p<0.05 | tumour outcome (control, treated, inhibition, significance) (Carcinogen: DIETHYLNITROSAMINE, 55-18-5, N-METHYLNITROSOUREA, 684-93-5, 1,2-DIMETHYLHYDRAZINE, 540-73-8, N-BUTYL-N-(4-HYDROXYB, Carcinogen: DIETHYLNITROSAMINE, 55-18-5, N-METHYLNITROSOUREA, 684-93-5, 1,2-DIMETHYLHYDRAZINE, 540-73-8, N-BUTYL-N-(4-HYDROXYB, Dose [Inhibitor]: 0, 1% IN DIET FOR 32 WK BEGINNING POST CARCINOGEN TREATMENT (STUDY DURATION: 36 WK), Species: RAT, Strain/Sex: F344/MALE, Target Tissue: Type of Lesion: SMALL INTESTINE: CARCINOMA, Dose [Carcinogen]: 100 MG/KG DEN ONCE, 20 MG/KG MNU 4 TIMES, 40 MG/KG DMH 4 TIMES, 0.05% BBN IN DRINKING WATER FOR 2 WK, 0.1% DHPN IN D, Dose [Carcinogen]: 100 MG/KG DEN ONCE, 20 MG/KG MNU 4 TIMES, 40 MG/KG DMH 4 TIMES, 0.05% BBN IN DRINKING WATER FOR 2 WK, 0.1% DHPN IN D, Promoter: NONE USED): 5/14 (36%), 0/12 (0%), 100%, p<0.05 | tumour outcome (control, treated, inhibition, significance) (Carcinogen: DIETHYLNITROSAMINE, 55-18-5, N-METHYLNITROSOUREA, 684-93-5, 1,2-DIMETHYLHYDRAZINE, 540-73-8, N-BUTYL-N-(4-HYDROXYBU, Carcinogen: DIETHYLNITROSAMINE, 55-18-5, N-METHYLNITROSOUREA, 684-93-5, 1,2-DIMETHYLHYDRAZINE, 540-73-8, N-BUTYL-N-(4-HYDROXYBU, Dose [Inhibitor]: 0, 1% IN DIET FOR 32 WK BEGINNING POST CARCINOGEN TREATMENT (STUDY DURATION: 36 WK), Species: RAT, Strain/Sex: F344/MALE, Target Tissue: Type of Lesion: LARGE INTESTINE: ADENOMA, Dose [Carcinogen]: 100 MG/KG DEN ONCE, 20 MG/KG MNU 4 TIMES, 40 MG/KG DMH 4 TIMES, 0.05% BBN IN DRINKING WATER FOR 2 WK, 0.1% DHPN IN D, Dose [Carcinogen]: 100 MG/KG DEN ONCE, 20 MG/KG MNU 4 TIMES, 40 MG/KG DMH 4 TIMES, 0.05% BBN IN DRINKING WATER FOR 2 WK, 0.1% DHPN IN D, Promoter: NONE USED): 7/14 (50%), 3/12 (25%), 50%, not significant | tumour outcome (control, treated, inhibition, significance) (Carcinogen: DIETHYLNITROSAMINE, 55-18-5, N-METHYLNITROSOUREA, 684-93-5, 1,2-DIMETHYLHYDRAZINE, 540-73-8, N-BUTYL-N-(4-HYDROXYBU, Carcinogen: DIETHYLNITROSAMINE, 55-18-5, N-METHYLNITROSOUREA, 684-93-5, 1,2-DIMETHYLHYDRAZINE, 540-73-8, N-BUTYL-N-(4-HYDROXYBU, Dose [Inhibitor]: 0, 1% IN DIET FOR 32 WK BEGINNING POST CARCINOGEN TREATMENT (STUDY DURATION: 36 WK), Species: RAT, Strain/Sex: F344/MALE, Target Tissue: Type of Lesion: LUNG: ADENOMA, Dose [Carcinogen]: 100 MG/KG DEN ONCE, 20 MG/KG MNU 4 TIMES, 40 MG/KG DMH 4 TIMES, 0.05% BBN IN DRINKING WATER FOR 2 WK, 0.1% DHPN IN D, Dose [Carcinogen]: 100 MG/KG DEN ONCE, 20 MG/KG MNU 4 TIMES, 40 MG/KG DMH 4 TIMES, 0.05% BBN IN DRINKING WATER FOR 2 WK, 0.1% DHPN IN D, Promoter: NONE USED): 6/14 (43%), 3/12 (25%), 42%, not significant | outcome (55-18-5, Dose [Inhibitor]: 0.5 ml suspension of 0.2% tween 80 aqueous soln with 0.898 mM quercetin once a wk for 16 wk, Dose [Carcinogen]: 200 mg/kg bw in 0.5 ml olive oil three times at 15 day intervals beginning on wk 1): 1205+/-102, 1111+/-56, not significant | outcome (55-18-5, Dose [Inhibitor]: 0.5 ml suspension of galactosylated liposomal quercitin, 0.898 mM, once a wk for 16 wk, study duration 18 wk, Dose [Carcinogen]: 200 mg/kg bw in 0.5 ml olive oil three times at end of 1st, 3rd and 5th wk, study duration 18 wk): 1205+/-102, 361+/-22, significant | outcome (55-18-5, Dose [Inhibitor]: 0.5 ml suspension of liposomal quercitin, 0.898 mM, once a wk for 16 wk, study duration 18 wk, Dose [Carcinogen]: 200 mg/kg bw in 0.5 ml olive oil three times at end of 1st, 3rd and 5th wk, study duration 18 wk): 1205+/-102, 861+/-81, significant | tumour outcome (control, treated, inhibition, significance) (Carcinogen: N-BUTYL-N-(4-HYDROXYBUTYL)NITROSAMINE, 3817-11-6, Dose [Inhibitor]: 5% DIET DAILY FOR 34 WK STARTING AT COMPLETION OF CARCINOGEN TREATMENT (STUDY DURATION: 38 WK), Species: RAT, Strain/Sex: F344/MALE, Target Tissue: Type of Lesion: URINARY BLADDER: PAPILLOMA, Dose [Carcinogen]: 0.01% IN DRINKING WATER FOR 4 WK, Promoter: NONE USED): 33%, 17%, 48%, not significant | tumour outcome (control, treated, inhibition, significance) (Carcinogen: N-NITROSODIETHYLAMINE, 55-18-5, 2-ACETYLAMINOFLUORENE, 53-93-6, CARBON TETRACHLORIDE, 56-23-5, Carcinogen: N-NITROSODIETHYLAMINE, 55-18-5, 2-ACETYLAMINOFLUORENE, 53-93-6, CARBON TETRACHLORIDE, 56-23-5, Dose [Inhibitor]: 0, 1.5% IN DIET FOR 29 WK ADMINISTERED TO RATS BEARING PERSISTENT NODULES FOLLOWING CARCINOGEN TREATMENT (STUDY DURATION, Species: RAT, Strain/Sex: F344/MALE, Target Tissue: Type of Lesion: LIVER: HEPATOCELLULAR CARCINOMA, Dose [Carcinogen]: 200 MG/KG BW DEN ONCE, 0.002% 2-AAF IN DIET FOR 2 WK, 1 MG/KG BW CCL4 MIDWAY IN 2-AAF TREATMENT, Dose [Carcinogen]: 200 MG/KG BW DEN ONCE, 0.002% 2-AAF IN DIET FOR 2 WK, 1 MG/KG BW CCL4 MIDWAY IN 2-AAF TREATMENT, Promoter: NONE USED): 7/8 (88%), 7/11 (64%), 27%, not significant | tumour outcome (control, treated, inhibition, significance) (Carcinogen: N-NITROSODIETHYLAMINE, 55-18-5, 2-ACETYLAMINOFLUORENE, 53-93-6, CARBON TETRACHLORIDE, 56-23-5, Carcinogen: N-NITROSODIETHYLAMINE, 55-18-5, 2-ACETYLAMINOFLUORENE, 53-93-6, CARBON TETRACHLORIDE, 56-23-5, Dose [Inhibitor]: 0, 1.5% IN DIET FOR 29 WK ADMINISTERED TO RATS BEARING PERSISTENT NODULES FOLLOWING CARCINOGEN TREATMENT (STUDY DURATION, Species: RAT, Strain/Sex: F344/MALE, Target Tissue: Type of Lesion: LIVER: HEPATOCELLULAR CARCINOMA, Dose [Carcinogen]: 200 MG/KG BW DEN ONCE, 0.002% 2-AAF IN DIET FOR 2 WK, 1 ML/KG BW CCL4 MIDWAY IN 2-AAF TREATMENT, Dose [Carcinogen]: 200 MG/KG BW DEN ONCE, 0.002% 2-AAF IN DIET FOR 2 WK, 1 ML/KG BW CCL4 MIDWAY IN 2-AAF TREATMENT, Promoter: PHENOBARBITAL, 50-06-6): 12/12 (100%), 13/14 (93%), 7%, not significant | tumour outcome (control, treated, inhibition, significance) (Carcinogen: N-NITROSOMETHYLUREA, 684-93-5, Dose [Inhibitor]: 5.0% IN DIET BEGINNING 1 WK PRIOR TO CARCINOGEN DOSE AND CONTINUING FOR DURATION OF STUDY (STUDY DURATION: 21 WK), Species: RAT, Strain/Sex: SPRAGUE-DAWLEY/FEMALE, Target Tissue: Type of Lesion: MAMMARY GLAND: TUMOR, Dose [Carcinogen]: 50 MG/KG BW IN 0.9% SALINE AND 5% ACETIC ACID STABILIZER ONCE, Promoter: NONE USED): 78%, 70%, 10%, not calculated | tumour outcome (control, treated, inhibition, significance) (Dose [Inhibitor]: 0, 2000 PPM IN DIET BEGINNING 8 WK PRIOR TO CARCINOGEN AND CONTINUING FOR 6 WK POST CARCINOGEN (STUDY DURATION: 68 WK), Species: FISH, Strain/Sex: RAINBOW TROUT, Target Tissue: Type of Lesion: LIVER: HEPATOCELLULAR CARCINOMA, Dose [Carcinogen]: 20 PPB IN DIET FOR 2 WK, Promoter: NONE USED): 43/118 (36%), 30/115 (26%), 27%, not significant
